Five substances from publication PMC4539421, “A Novel Microbisporicin Producer Identified by Early Dereplication during Lantibiotic Screening” (BioMed Research International, 2015) can be followed below.

Assay [1] relates to L100 S. aureus ATCC6538P. The assay can be described thus: MIC by broth microdilution, S. aureus. In kind it is cell-based, Staphylococcus aureus. As to conditions: broth microdilution assay [27]. The method, then: (§1) Broth and mycelium screening extracts from the F.I.I.R.V. collection of Actinoallomurus strains isolated according as above were screened in liquid microplate assays for their antimicrobial activity on S. aureus 209 ATCC 6538P (L100) and to its L-form cells (L3751), as described in detail in [7]. In brief, S. aureus 209 ATCC 6538P (L100) and its L-form cells (L3751) were maintained at −80°C in Nutrient Broth (Difco) to which 20% (v/v) glycerol was added. EBH/S supplemented with 5% (v/v) horse serum was used as medium. For the wild-type inoculum, 10 μL of extracts previously dissolved in DMSO : H2O 1 : 9 (v/v) were added to 1 × 10^5 CFU/mL in 90 μL of culture broth. For L-form cells, aliquots of liquid cultures grown overnight in EBHI/S to O.D.620 nm = 0.2 were used as inoculum. Incubation time was 24 h at 35°C in air, and then growth inhibition was measured at O.D.620 nm. Reference actagardine, planosporicin, microbisporicin, mersacidin, and nisin standards were used and MIC levels were determined by broth microdilution assay as recommended by the National Committee for Clinical Laboratory Standards. To identify β-lactam producers, antimicrobial activity versus S. aureus 209 ATCC 6538P (L100) was measured in a liquid microplate assay after adding the following cocktail of β-lactamases: Penicillase Type I from Bacillus cereus (Sigma P0389), 0.001 U/mL; Penicillase Type II from Bacillus cereus (Sigma P6018), 0.002 U/mL; Penicillase type III from Enterobacter cloacae (Sigma P4399), 0.0025 U/mL; and Penicillase type IV from Enterobacter cloacae (Sigma P4524), 0.5 U/mL. To identify glycopeptide producers, antimicrobial activity versus S. aureus 209 ATCC 6538P (L100) was measured in a liquid microplate assay after adding 2 mg/mL of Ac-Lys-D-alanyl-D-alanine (Chem-Impex International Inc., IL).
(§2) Antimicrobial activity was determined by broth microdilution assay according to standard guidelines. The growth media utilized to determine the MIC were cation-adjusted Difco Mueller Hinton Broth (MHB) for Staphylococci, Enterococci, and E. coli, Todd Hewitt Broth (THB) for Streptococci, and RPMI-1640 medium (RPMI) for C. albicans. Typically, a twofold serial dilution of the test compound was performed in a sterile 96-well microplate inoculated with 10^4 CFU/mL of the test strain in the appropriate medium. The microplate was then incubated for 18–24 h at 35°C.

Assay [2] relates to L3751 S. aureus L-form. The assay can be described thus: MIC by broth microdilution, S. aureus L-form. As to conditions: broth microdilution assay [27]; L-form cells. Format: cell-based, Staphylococcus aureus. The method, then: Staphylococcus aureus 209 ATCC 6538P (L100) were purchased from the American Type Culture Collection (ATCC; Manassas VA). L-form cells (L3751) were prepared from L100 by exposure to 100 U of penicillin in Enterococcal Brain Heart Infusion/S (EBH/S) supplemented with 5% NaCl, 5% sucrose, and 10% horse serum as previously described. L-forms were then cultured on similarly supplemented brain heart infusion agar containing no antibiotic. S. aureus Smith ATCC19636 (L819), Streptococcus pyogenes C203 ATCC12384 (L49), and other clinical isolates (S. aureus L1400, Enterococcus faecalis L559, Enterococcus faecalis Van A L560, Escherichia coli SKF12140 L47, and Candida albicans SKF2270 L145) were maintained in the Fondazione Istituto Insubrico Ricerca per la Vita (F.I.I.R.V.) culture collection (L collection) at Gerenzano, Italy.
as §1
(§3) Antimicrobial activity was determined by broth microdilution assay according to standard guidelines. […]
On the technique in general: In broth dilution the organism is exposed to a series of concentrations in liquid medium.

The test system of assay [3] is L1400 S. aureus MRSA. The assay can be described thus: MIC by broth microdilution, MRSA. In kind it is cell-based, Staphylococcus aureus. Particulars: broth microdilution assay [27]; MRSA clinical isolate. The method, then:
as §1, §2

The subject of assay [4] is L49 S. pyogenes. The assay can be described thus: MIC by broth microdilution, S. pyogenes. In kind it is cell-based, Streptococcus pyogenes. As to conditions: broth microdilution assay [27]. The method, then: as §1, §3
Assay [5] relates to L47 E. coli. In kind it is cell-based, Escherichia coli. As to conditions: broth microdilution assay [27]. On the procedure: as §1, §3
Assay [6] deals with L145 C. albicans. In kind it is cell-based, Candida albicans. Particulars: broth microdilution assay [27]. The method, then: as §1, §3
Assay [7] relates to S. aureus. The assay can be described thus: Bioautography of HPLC fractions, S. aureus. Format: cell-based, Staphylococcus aureus. As to conditions: 1 mL HPLC fractions dried, resuspended in 100 μL 10% DMSO, 10 μL tested. The method, then: (§4) For bioautography, fractions (1 mL, eluting at 1 mL/min) from the HPLC column were collected, dried, and resuspended in 100 μL aqueous solution at 10% (v/v) DMSO. 10 μL were tested for antimicrobial activity. UV and mass spectra of molecules present in the active fractions were compared with those collected in the ABL database, which contains data on approximately 30,000 microbial metabolites collected from literature and patents since 1950 [20, 28], and in the commercially available Antibase (http://wwwuser.gwdg.de/~hlaatsc/antibase.htm).

The test system of assay [8] is S. aureus L-form L3751. The assay can be described thus: Bioautography of HPLC fractions, S. aureus L-form. Format: cell-based, Staphylococcus aureus. Particulars: 1 mL HPLC fractions dried, resuspended in 100 μL 10% DMSO, 10 μL tested. The method, then: as §4

No end group written: not given here.

The MIC is the smallest concentration in the dilution series that meets the test's criterion for growth inhibition. The low end stands for a more susceptible organism, the high end for a less susceptible organism. Consider Actagardine, for which the MIC in assay [1] was 32 mg/L; in assay [2], greater than 128 mg/L; in assay [3], 16 mg/L; in assay [4] it was 2 mg/L; in assay [5], greater than 128 mg/L; in assay [6] it was greater than 128 mg/L.

Take Microbisporicin: the MIC is no more than 0.13 mg/L in assay [1]; greater than 128 mg/L in assay [2]; no more than 0.13 mg/L in assay [3]; less than 1 mg/L in assay [4]; greater than 128 mg/L in assay [5]; greater than 128 mg/L in assay [6].

For Planosporicin, the MIC in assay [1] is given as 2 mg/L; in assay [2], greater than 128 mg/L; in assay [3], 16 mg/L; in assay [4] it was less than 1 mg/L; in assay [5], greater than 128 mg/L; in assay [6] it was greater than 128 mg/L.

With “Mersacidin (CTFTLPGGGGVCTLTSECIC; also: lantibiotic mersacidin, thioether rings not placed; UniProt P43683 49-68, looked up) [lantibiotic standard]”, the figures for the MIC in assay [1], in assay [2] and in assay [3] were 4 mg/L, 64 mg/L and 8 mg/L, respectively.

In the case of Microbisporicin A2, the entries for the “Growth inhibition by HPLC fraction (bioautography)” value in assay [7] and in assay [8] were “inhibits the microbial growth” and “but not its L-form”, respectively.
